Experimental data from patent US10829478B2, “5-[3-[piperazin-1-yl]-3-oxo-propyl]-imidazolidine-2,4-dione derivatives as ADAMTS 4 and 5 inhibitors for treating e.g. osteoarthritis” (Galapagos NV, priority 2016, dated 2020).
Like-named read-outs stand apart in the source and are kept apart here.

Experiments:
human ADAMTS6 = human ADAMTS6 (Homo sapiens (Human), UniProt Q9UKP5); test: hADAMTS-6 fluorescent based protease assay (520 MMP FRET substrate XII); format: biochemical; settings: 37° C. for 2 h; read-out: hADAMTS-6 potency IC50
Chain of human ADAMTS6 (Q9UKP5 other isoform, or with tags, fused parts or gaps): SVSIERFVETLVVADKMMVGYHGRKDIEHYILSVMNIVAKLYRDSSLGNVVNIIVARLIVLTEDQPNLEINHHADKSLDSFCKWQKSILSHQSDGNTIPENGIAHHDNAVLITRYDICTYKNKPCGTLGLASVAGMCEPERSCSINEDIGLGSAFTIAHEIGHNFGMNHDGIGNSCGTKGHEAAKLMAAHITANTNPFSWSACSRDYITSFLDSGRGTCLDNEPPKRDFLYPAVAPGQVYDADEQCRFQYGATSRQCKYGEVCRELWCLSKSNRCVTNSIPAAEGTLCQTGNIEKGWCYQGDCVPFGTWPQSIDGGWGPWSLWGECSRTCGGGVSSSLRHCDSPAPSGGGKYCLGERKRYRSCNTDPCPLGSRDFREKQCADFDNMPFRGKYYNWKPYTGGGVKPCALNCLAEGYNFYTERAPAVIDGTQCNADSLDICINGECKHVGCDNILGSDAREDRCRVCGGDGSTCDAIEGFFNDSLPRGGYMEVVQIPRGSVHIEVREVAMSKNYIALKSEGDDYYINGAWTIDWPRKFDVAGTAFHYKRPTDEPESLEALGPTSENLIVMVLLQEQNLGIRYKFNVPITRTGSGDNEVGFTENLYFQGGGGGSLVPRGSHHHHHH
Procedure: The IC50 value for test compounds can be determined in a fluorescent based protease assay.
The substrate contains sequence Arg-Pro-Lys-Pro-Tyr-Ala-Nva-Trp-Met-Lys (SEQ ID NO: 7) with attached a fluorescent probe and a quencher. Without ADAMTS6, the emission of the probe is quenched. If the substrate is cleaved by ADAMTS6, the emission of the probe is not quenched anymore. Inhibition of ADAMTS6 activity, will result in a decrease of the signal.
To perform the assay, 4 μL of a dilution series of compound in water, starting from 20 μM highest concentration, ⅕ dilution, is added to the wells. 2 ng ADAMTS6 enzyme is diluted in 25 mM Tris pH8.0, 0.05% CHAPS, 2.5 mM CaCl2 in a total volume of 26 μL (final concentration 0.73 nM). The reaction is started by addition of 10 μL of 1 μM 520 MMP FRET Substrate XII (final concentration, diluted in same buffer as described above) and the mixture is incubated at 37° C. for 2 h. […] After this incubation, cleavage of the substrate is measured using the Envision (Perkin Elmer, exc485/em530).

human ADAMTS-5 = human ADAMTS-5 (Homo sapiens (Human), UniProt Q9UNA0); test: hADAMTS-5 TBIS-1 cleavage assay, Protocol 3; format: biochemical; settings: 90 min at 37° C., read-out: hADAMTS-5 potency IC50
Chain of human ADAMTS-5 (Q9UNA0 262-930): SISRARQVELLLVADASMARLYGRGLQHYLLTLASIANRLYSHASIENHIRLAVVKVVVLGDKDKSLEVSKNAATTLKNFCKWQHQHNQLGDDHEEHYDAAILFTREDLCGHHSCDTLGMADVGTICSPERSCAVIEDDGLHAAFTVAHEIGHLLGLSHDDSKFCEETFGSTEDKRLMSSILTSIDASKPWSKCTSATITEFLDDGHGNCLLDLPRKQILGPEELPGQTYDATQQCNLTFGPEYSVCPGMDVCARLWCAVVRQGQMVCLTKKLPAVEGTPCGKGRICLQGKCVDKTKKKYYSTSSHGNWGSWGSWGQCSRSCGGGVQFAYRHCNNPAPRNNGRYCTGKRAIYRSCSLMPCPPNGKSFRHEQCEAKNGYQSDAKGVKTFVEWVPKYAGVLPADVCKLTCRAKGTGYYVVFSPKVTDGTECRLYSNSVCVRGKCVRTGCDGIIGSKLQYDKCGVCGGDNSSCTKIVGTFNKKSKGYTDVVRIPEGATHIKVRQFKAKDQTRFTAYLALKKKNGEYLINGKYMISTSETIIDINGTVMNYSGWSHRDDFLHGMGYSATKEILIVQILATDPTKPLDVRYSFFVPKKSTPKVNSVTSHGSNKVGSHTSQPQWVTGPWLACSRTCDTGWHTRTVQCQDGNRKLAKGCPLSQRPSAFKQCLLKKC
Procedure: The reaction is initiated by adding to the assay plate TBIS-1 (10 μL, 4.5 μM, Anaspec) in the same buffer.
Finally, the fluorescence is read on the Envision (Perkin Elmer) after an incubation of 90 min at 37° C. (Excitation 485 nm, emission 530).

human ADAMTS4 = human ADAMTS4 (Homo sapiens (Human), UniProt O75173); test: hADAMTS-4 TBIS-1 cleavage assay, Protocol 2; format: biochemical
Chain of human ADAMTS4 (O75173 213-837): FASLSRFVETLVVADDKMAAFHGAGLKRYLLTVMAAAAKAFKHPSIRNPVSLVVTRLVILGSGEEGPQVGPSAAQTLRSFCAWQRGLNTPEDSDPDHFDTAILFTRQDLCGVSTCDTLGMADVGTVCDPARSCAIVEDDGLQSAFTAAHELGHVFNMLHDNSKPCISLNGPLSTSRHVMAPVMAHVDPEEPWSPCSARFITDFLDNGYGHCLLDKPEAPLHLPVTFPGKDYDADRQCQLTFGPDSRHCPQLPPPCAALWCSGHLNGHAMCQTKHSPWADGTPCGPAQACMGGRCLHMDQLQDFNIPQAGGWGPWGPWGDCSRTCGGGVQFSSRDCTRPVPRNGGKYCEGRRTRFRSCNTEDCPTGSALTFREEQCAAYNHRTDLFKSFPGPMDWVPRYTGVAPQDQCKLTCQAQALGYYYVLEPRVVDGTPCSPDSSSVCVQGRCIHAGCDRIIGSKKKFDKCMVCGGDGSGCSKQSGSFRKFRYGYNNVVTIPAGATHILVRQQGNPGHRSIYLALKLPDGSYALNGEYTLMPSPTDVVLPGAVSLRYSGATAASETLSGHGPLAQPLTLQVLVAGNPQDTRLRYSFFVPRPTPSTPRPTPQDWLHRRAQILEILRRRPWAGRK

human TACE = human TACE (Homo sapiens (Human), UniProt P78536); test: biochemical
Chain of human TACE (P78536 215-671): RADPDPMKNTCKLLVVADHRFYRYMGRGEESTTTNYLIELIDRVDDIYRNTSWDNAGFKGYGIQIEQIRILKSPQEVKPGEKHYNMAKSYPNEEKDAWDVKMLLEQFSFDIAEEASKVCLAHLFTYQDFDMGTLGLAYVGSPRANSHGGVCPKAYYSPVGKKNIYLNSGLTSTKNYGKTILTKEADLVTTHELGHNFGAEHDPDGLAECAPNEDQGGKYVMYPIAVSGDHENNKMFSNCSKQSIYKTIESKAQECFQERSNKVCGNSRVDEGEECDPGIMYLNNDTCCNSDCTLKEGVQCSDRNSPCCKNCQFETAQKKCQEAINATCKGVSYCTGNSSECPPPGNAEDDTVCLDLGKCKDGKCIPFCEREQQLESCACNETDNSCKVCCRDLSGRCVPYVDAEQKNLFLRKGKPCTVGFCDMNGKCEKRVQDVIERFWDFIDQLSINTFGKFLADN
Procedure: Finally, the fluorescence is read on the Envision (Perkin Elmer) after an incubation of 75 min at room temperature (Excitation 485 nm, Emission 530).

human MMP13 = human MMP13 (Homo sapiens (Human), UniProt P45452); test: hMMP13 assay, Protocol 1 (390 MMP FRET Substrate I, Chemicon enzyme); format: biochemical; settings: Protocol 1, human MMP13 (Chemicon), read-out: hMMP-13 potency IC50
Procedure: Human MMP13 is preactivated by incubated the enzyme in the same buffer complemented with 1 mM freshly prepared p-Aminophenylmercuric acetate (AMPA) for 1 h at 37° C.

[1] = Protocol 2, 180 min at 37° C., read-out: ADAMTS4 potency IC50

SMILES | IC50 (human ADAMTS6) | IC50 (human ADAMTS-5) | IC50 (human TACE) | IC50 (human ADAMTS4; [1]) | IC50 (human MMP13) | IC50 (human ADAMTS4)
COc1cc(N2CCN(C(=O)[C@@H](C)C[C@@]3(c4ccccn4)NC(=O)NC3=O)C[C@@H]2C)cc(F)c1F (stereo in doubt) [Cpd 49, 5-[3-[(3 S)-4-(3,4-difluoro-5-methoxy-phenyl)-3-methyl-piperazin-1-yl]-2-methyl-3-oxo-propyl]-5-(2-pyridyl)imidazolidine-2,4-dione] | 0.001 to 25 nM | 25 to 50 nM | > 100 nM | – | – | 50 to 100 nM
COc1c(Cl)cccc1N1CCN(C(=O)CC[C@@]2(C)NC(=O)NC2=O)C[C@@H]1C [Cpd 69, (5R)-5-[3-[(3 S)-4-(3-chloro-2-methoxy-phenyl)-3-methyl-piperazin-1-yl]-3-oxo-propyl]-5-methyl-imidazolidine-2,4-dione] | > 100 nM | > 100 nM | > 100 nM | – | – | –
COc1ccc(Cl)cc1N1CCN(C(=O)CC[C@@]2(C)NC(=O)NC2=O)C[C@@H]1C [Cpd 91, (5R)-5-[3-[(3 S)-4-(5-chloro-2-methoxy-phenyl)-3-methyl-piperazin-1-yl]-3-oxo-propyl]-5-methyl-imidazolidine-2,4-dione] | > 100 nM | > 100 nM | > 100 nM | – | – | –
COc1cncc(N2CCN(C(=O)CCC3(C4CC4)NC(=O)NC3=O)C[C@@H]2C)c1 (stereo partly drawn) [Cpd 60, 5-cyclopropyl-5-[3-[(3S)-4-(5-methoxy-3-pyridyl)-3-methyl-piperazin-1-yl]-3-oxo-propyl]imidazolidine-2,4-dione] | > 100 nM | > 100 nM | > 100 nM | > 100 nM | – | –
COc1cc(Cl)ccc1N1CCN(C(=O)CC[C@@]2(C)NC(=O)NC2=O)C[C@@H]1C [Cpd 76, (5R)-5-[3-[(3 S)-4-(4-chloro-2-methoxy-phenyl)-3-methyl-piperazin-1-yl]-3-oxo-propyl]-5-methyl-imidazolidine-2,4-dione] | > 100 nM | > 100 nM | > 100 nM | – | – | –
COc1cc(F)ccc1N1CCN(C(=O)CC[C@@]2(C)NC(=O)NC2=O)CC1 [Cpd 78, (5R)-5-[3-[4-(4-fluoro-2-methoxy-phenyl)piperazin-1-yl]-3-oxo-propyl]-5-methyl-imidazolidine-2,4-dione] | > 100 nM | > 100 nM | > 100 nM | – | – | –
COc1cc(N2CCN(C(=O)[C@@H](C)C[C@@]3(C)NC(=O)NC3=O)C[C@@H]2C)c(C)cc1Cl (mixture of isomers) [Cpd 45, 5-[3-[(3S)-4-(4-chloro-5-methoxy-2-methyl-phenyl)-3-methyl-piperazin-1-yl]-2-methyl-3-oxo-propyl]-5-methyl-imidazolidine-2,4-dione] | > 100 nM | > 100 nM | – | – | – | –
COc1cc(N2CCN(C(=O)CC[C@@]3(C)NC(=O)NC3=O)C[C@@H]2C)c(C)cc1F [Cpd 66, (5R)-5-[3-[(3S)-4-(4-fluoro-5-methoxy-2-methyl-phenyl)-3-methyl-piperazin-1-yl]-3-oxo-propyl]-5-methyl-imidazolidine-2,4-dione] | 50 to 100 nM | > 100 nM | > 100 nM | – | – | –
CCc1cccc(N2CCN(C(=O)CC[C@@]3(C)NC(=O)NC3=O)CC2)c1 [Cpd 70, (5R)-5-[3-[4-(3-ethylphenyl)piperazin-1-yl]-3-oxo-propyl]-5-methyl-imidazolidine-2,4-dione] | > 100 nM | > 100 nM | > 100 nM | – | – | –
COc1cc(N2CCN(C(=O)CCC3(C)NC(=O)NC3=O)CC2)cc(Cl)c1F (stereo not drawn) [Cpd 50, 5-[3-[4-(3-chloro-4-fluoro-5-methoxy-phenyl)piperazin-1-yl]-3-oxo-propyl]-5-methyl-imidazolidine-2,4-dione] | 0.001 to 25 nM | > 100 nM | > 100 nM | > 100 nM | > 100 nM | –
COc1cc(N2CCN(C(=O)CC[C@@]3(C)NC(=O)NC3=O)CC2)cc(F)c1F [Cpd 20, (R)-5-[3-[4-(3,4-difluoro-5-methoxy-phenyl)piperazin-1-yl]-3-oxo-propyl]-5-methyl-imidazolidine-2,4-dione] | 0.001 to 25 nM | > 100 nM | > 100 nM | > 100 nM | > 100 nM | –
COc1cc(Cl)c(Cl)cc1N1CCN(C(=O)CC[C@@]2(C)NC(=O)NC2=O)CC1 [Cpd 94, (5R)-5-[3-[4-(4,5-dichloro-2-methoxy-phenyl)piperazin-1-yl]-3-oxo-propyl]-5-methyl-imidazolidine-2,4-dione] | 0.001 to 25 nM | > 100 nM | > 100 nM | – | – | –
COc1cc(Cl)ccc1N1CCN(C(=O)CC[C@@]2(C)NC(=O)NC2=O)CC1 [Cpd 73, (5R)-5-[3-[4-(4-chloro-2-methoxy-phenyl)piperazin-1-yl]-3-oxo-propyl]-5-methyl-imidazolidine-2,4-dione] | > 100 nM | > 100 nM | > 100 nM | – | – | –
COc1cc(Cl)c(C)cc1N1CCN(C(=O)CC[C@@]2(C)NC(=O)NC2=O)C[C@@H]1C [Cpd 95, (5R)-5-[3-[(3S)-4-(4-chloro-2-methoxy-5-methyl-phenyl)-3-methyl-piperazin-1-yl]-3-oxo-propyl]-5-methyl-imidazolidine-2,4-dione] | 0.001 to 25 nM | > 100 nM | > 100 nM | – | – | –

The next lines start with results.

IC50 (human ADAMTS6) | IC50 (human ADAMTS-5) | IC50 (human TACE) | IC50 (human ADAMTS4; [1]) | IC50 (human MMP13) | SMILES | IC50 (human ADAMTS4)
50 to 100 nM | > 100 nM | > 100 nM | > 100 nM | > 100 nM | COc1cc(N2CCN(C(=O)CC[C@H]3NC(=O)NC3=O)CC2)cc(F)c1F [Cpd 128, (5R)-5-[3-[4-(3,4-difluoro-5-methoxy-phenyl)piperazin-1-yl]-3-oxo-propyl]imidazolidine-2,4-dione] | –
50 to 100 nM | > 100 nM | > 100 nM | – | – | CCOc1cc(N2CCN(C(=O)CC[C@H]3NC(=O)NC3=O)CC2)cc(OC)c1Cl [Cpd 149, (5R)-5-[3-[4-(4-chloro-3-ethoxy-5-methoxy-phenyl)piperazin-1-yl]-3-oxo-propyl]imidazolidine-2,4-dione] | –
25 to 50 nM | > 100 nM | > 100 nM | – | – | COc1cc(N2CCN(C(=O)CC[C@H]3NC(=O)NC3=O)CC2)cc(OC)c1F [Cpd 151, (5R)-5-[3-[4-(4-fluoro-3,5-dimethoxy-phenyl)piperazin-1-yl]-3-oxo-propyl]imidazolidine-2,4-dione] | –
> 100 nM | > 100 nM | – | – | – | COc1ccc(C)c(N2CCN(C(=O)CC[C@H]3NC(=O)NC3=O)CC2)c1 [Cpd 136, (5R)-5-[3-[4-(5-methoxy-2-methyl-phenyl)piperazin-1-yl]-3-oxo-propyl]imidazolidine-2,4-dione] | –
0.001 to 25 nM | > 100 nM | > 100 nM | > 100 nM | > 100 nM | COc1cc(N2CCN(C(=O)CC[C@H]3NC(=O)NC3=O)CC2)cc(F)c1Cl [Cpd 143, (5R)-5-[3-[4-(4-chloro-3-fluoro-5-methoxy-phenyl)piperazin-1-yl]-3-oxo-propyl]imidazolidine-2,4-dione] | –
0.001 to 25 nM | > 100 nM | – | – | – | CCOc1cc(N2CCN(C(=O)CC[C@@]3(C)NC(=O)NC3=O)C[C@@H]2C)ccc1Cl [Cpd 111, (5R)-5-[3-[(3 S)-4-(4-chloro-3-ethoxy-phenyl)-3-methyl-piperazin-1-yl]-3-oxo-propyl]-5-methyl-imidazolidine-2,4-dione] | –
50 to 100 nM | > 100 nM | – | – | – | COc1cc(N2CCN(C(=O)[C@H](C)C[C@@]3(C4CC4)NC(=O)NC3=O)C[C@@H]2C)cc(F)c1F (stereo in doubt) [Cpd 134, 5-cyclopropyl-5-[3-[(3S)-4-(3,4-difluoro-5-methoxy-phenyl)-3-methyl-piperazin-1-yl]-2-methyl-3-oxo-propyl]imidazolidine-2,4-dione] | –
